Assays:
Settings in all cases: incubation time: 72 h
CAL-148 [1] = experiment: normalised response (% of control), CellTiter-Glo; higher = more viable cells (100 = DMSO, 0 = benzethonium chloride kill control)
Method in brief: (§1)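 Each value is the plate-normalised signal at one concentration of the series. Breast cancer cell lines (20 µl suspension) were incubated 72 h in 384-well plates with compound at 5 concentrations in 10-fold steps over a compound-specific 10,000-fold range. CellTox Green and then CellTiter-Glo were read, and each plate was scaled to 0.1 % DMSO (100) and a positive kill control (0).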

HCC1599 [2] = experiment: as above
Method in brief: as §1

BT-474 [3] = experiment: as above
Method in brief: as §1

DU-4475 [4] = experiment: as above
Method in brief: as §1

MDA-MB-453 [5] = experiment: as above
Method in brief: as §1

MDA-MB-231 [6] = experiment: as above
Method in brief: as §1

CAL-85-1 [7] = experiment: as above
Method in brief: as §1

MCF-10A [8] = experiment: as above
Method in brief: as §1

CAL-51 [9] = experiment: as above
Method in brief: as §1

CAL-120 [10] = experiment: as above
Method in brief: as §1

BT-549 [11] = experiment: as above
Method in brief: as §1

MDA-MB-468 [12] = experiment: as above
Method in brief: as §1

HCC1937 [13] = experiment: as above
Method in brief: as §1

MDA-MB-436 [14] = experiment: as above
Method in brief: as §1

SK-BR-3 = experiment: as above
Method in brief: as §1

Hs578T [15] = experiment: as above
Method in brief: as §1

HCC1143 [16] = experiment: as above
Method in brief: as §1

MFM-223 [17] = experiment: as above
Method in brief: as §1

HDQ-P1 [18] = experiment: as above
Method in brief: as §1

CAL-148 [19] = experiment: normalised response (% of control), CellTox Green; higher = less cell death (100 = DMSO, 0 = benzethonium chloride kill control)
Method in brief: as §1

HCC1599 [20] = experiment: as above
Method in brief: as §1

BT-474 [21] = experiment: as above
Method in brief: as §1

DU-4475 [22] = experiment: as above
Method in brief: as §1

MDA-MB-453 [23] = experiment: as above
Method in brief: as §1

MDA-MB-231 [24] = experiment: as above
Method in brief: as §1

CAL-85-1 [25] = experiment: as above
Method in brief: as §1

MCF-10A [26] = experiment: as above
Method in brief: as §1

CAL-51 [27] = experiment: as above
Method in brief: as §1

CAL-120 [28] = experiment: as above
Method in brief: as §1

BT-549 [29] = experiment: as above
Method in brief: as §1

MDA-MB-468 [30] = experiment: as above
Method in brief: as §1

HCC1937 [31] = experiment: as above
Method in brief: as §1

MDA-MB-436 [32] = experiment: as above
Method in brief: as §1

Hs578T [33] = experiment: as above
Method in brief: as §1

HCC1143 [34] = experiment: as above
Method in brief: as §1

MFM-223 [35] = experiment: as above
Method in brief: as §1

HDQ-P1 [36] = experiment: as above
Method in brief: as §1

SMILES	normalised response (CAL-148 [1])	normalised response (HCC1599 [2])	normalised response (BT-474 [3])	normalised response (DU-4475 [4])	normalised response (MDA-MB-453 [5])	normalised response (MDA-MB-231 [6])	normalised response (CAL-85-1 [7])	normalised response (MCF-10A [8])	normalised response (CAL-51 [9])	normalised response (CAL-120 [10])	normalised response (BT-549 [11])	normalised response (MDA-MB-468 [12])	normalised response (HCC1937 [13])	normalised response (MDA-MB-436 [14])	normalised response (SK-BR-3)	normalised response (Hs578T [15])	normalised response (HCC1143 [16])	normalised response (MFM-223 [17])	normalised response (HDQ-P1 [18])	normalised response (CAL-148 [19])	normalised response (HCC1599 [20])	normalised response (BT-474 [21])	normalised response (DU-4475 [22])	normalised response (MDA-MB-453 [23])	normalised response (MDA-MB-231 [24])	normalised response (CAL-85-1 [25])	normalised response (MCF-10A [26])	normalised response (CAL-51 [27])	normalised response (CAL-120 [28])	normalised response (BT-549 [29])	normalised response (MDA-MB-468 [30])	normalised response (HCC1937 [31])	normalised response (MDA-MB-436 [32])	normalised response (Hs578T [33])	normalised response (HCC1143 [34])	normalised response (MFM-223 [35])	normalised response (HDQ-P1 [36])
CC(=O)OC[C@H]1O[C@@H]([S-])[C@H](OC(C)=O)[C@@H](OC(C)=O)[C@@H]1OC(C)=O.CCP(CC)CC.[Au+] [Auranofin] (250 nM)	101%	112%	99%	102%	90.7%	101%	93.2%	118%	46.3%	99.4%	68.9%	18.5%	87.4%	90.7%	99.8%	97.4%	91.8%	98.5%	101%	107%	104%	95.5%	110%	105%	125%	120%	115%	80.4%	107%	103%	79.5%	108%	109%	103%	123%	98.4%	115%
O=S(=O)(c1cccc2cnccc12)N1CCCNCC1 [Fasudil] (5000 nM)	97.1%	101%	96.5%	96.8%	95.7%	106%	122%	89%	94.9%	89.4%	95.9%	105%	105%	113%	107%	99.7%	96.3%	102%	101%	98.2%	103%	97.1%	99%	100%	97.6%	102%	83.4%	110%	94.5%	99.9%	70.9%	109%	95.3%	66%	98.9%	94.8%	75.7%
CS(=O)(=O)N1CCN(Cc2cc3nc(-c4cccc5[nH]ncc45)nc(N4CCOCC4)c3s2)CC1 [Pictilisib] (1000 nM)	66.3%	96.1%	69.4%	86.5%	38.6%	70.5%	63.5%	38.4%	57.4%	64.9%	58.7%	72.9%	73.9%	72.7%	40.4%	64.3%	68%	66.5%	47.1%	53.4%	103%	97.5%	98.3%	96.7%	99.3%	–	44.2%	92.7%	100%	125%	45.4%	126%	99.6%	108%	62.9%	76.8%	87.1%
c1cc(CN2CCCNCCNCCCNCC2)ccc1CN1CCCNCCNCCCNCC1 [Plerixafor] (1000 nM)	90.4%	102%	93.7%	92.1%	80.1%	96.9%	96.1%	81.8%	111%	111%	105%	98.1%	101%	102%	80%	91.4%	97.3%	87.3%	101%	92.3%	88.8%	95.2%	91.8%	99%	82.7%	105%	86.6%	89.1%	96.6%	107%	85%	54.1%	–	–	–	97.4%	58.5%
CC(C)N(CCCNC(=O)Nc1ccc(C(C)(C)C)cc1)C[C@H]1O[C@@H](n2cc(Br)c3c(N)ncnc32)[C@H](O)[C@@H]1O [SGC0946] (1000 nM)	91.3%	102%	103%	98.4%	104%	92.1%	102%	97.9%	118%	100%	95.5%	86.5%	97.3%	93.4%	95.7%	103%	96.5%	94%	102%	–	91.8%	97.3%	95.8%	105%	101%	96.3%	107%	100%	95.7%	99.9%	111%	93.1%	97.8%	–	–	98.4%	103%
